Measured values taken from ChEMBL document CHEMBL1201861, “Genomics of Drug Sensitity in Cancer screening data, Wellcome Trust Sanger Institute”.

How the values were obtained:
Experiment in all cases: cells
Assay type in all cases: functional, cell-based
Conditions in all cases: Homo sapiens
[1] = test system: RERF-LC-MS;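 also: growth inhibition of human RERF-LC-MS cells, read out by a cell viability assay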
Description: SANGER: Inhibition of human RERF-LC-MS cell growth in a cell viability assay.

[2] = test system: SW1417;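 also: growth inhibition of human SW1417 cells, read out with a cell viability assay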
Description: SANGER: Inhibition of human SW1417 cell growth in a cell viability assay.

[3] = test system: SK-MEL-30;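 also: growth inhibition of SK-MEL-30 cells, determined with a cell viability assay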
Description: SANGER: Inhibition of human SK-MEL-30 cell growth in a cell viability assay.

[4] = test system: BC-3;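 also: cell viability assay measuring growth inhibition of human BC-3 cells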
Description: SANGER: Inhibition of human BC-3 cell growth in a cell viability assay.

[5] = test system: PFSK-1;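 also: cell viability assay measuring how strongly compounds suppress growth of human PFSK-1 cells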
Description: SANGER: Inhibition of human PFSK-1 cell growth in a cell viability assay.

[6] = test system: CAL-85-1;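 also: growth inhibition of human CAL-85-1 cells, read out with a cell viability assay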
Description: SANGER: Inhibition of human CAL-85-1 cell growth in a cell viability assay.

[7] = test system: HN
Description: SANGER: Inhibition of human HN cell growth in a cell viability assay.

[8] = test system: SNU-449
Description: SANGER: Inhibition of human SNU-449 cell growth in a cell viability assay.

[9] = test system: HuP-T3;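 also: HuP-T3 cell growth inhibition, read out with a cell viability assay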
Description: SANGER: Inhibition of human HuP-T3 cell growth in a cell viability assay.

[10] = test system: LC-1F;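 also: growth inhibition of human LC-1F cells, read out with a cell viability assay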
Description: SANGER: Inhibition of human LC-1F cell growth in a cell viability assay.

[11] = test system: TALL-1;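 also: growth inhibition of cultured human TALL-1 cells, read out by a cell viability assay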
Description: SANGER: Inhibition of human TALL-1 cell growth in a cell viability assay.

[12] = test system: SK-N-AS;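 also: growth inhibition of human SK-N-AS cells, measured with a cell viability assay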
Description: SANGER: Inhibition of human SK-N-AS cell growth in a cell viability assay.

[13] = test system: MDA-MB-175-VII
[14] = test system: C3A;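 also: growth inhibition of C3A human cells, quantified with a cell viability readout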
Description: SANGER: Inhibition of human C3A cell growth in a cell viability assay.

[15] = test system: MG-63;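 also: growth inhibition of human MG-63 cells, read out with a cell viability assay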
Description: SANGER: Inhibition of human MG-63 cell growth in a cell viability assay.

[16] = test system: NCI-H1618;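 also: growth inhibition of human NCI-H1618 cells, measured by a cell viability assay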
Description: SANGER: Inhibition of human NCI-H1618 cell growth in a cell viability assay.

[17] = test system: KYSE-450;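 also: cell growth inhibition measured by a viability assay in human KYSE-450 cells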
Description: SANGER: Inhibition of human KYSE-450 cell growth in a cell viability assay.

[18] = test system: THP-1;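 also: growth inhibition of THP-1 cells, read out via a cell viability assay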
Description: SANGER: Inhibition of human THP-1 cell growth in a cell viability assay.

[19] = test system: DOK;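 also: cell viability assay read-out, values reflect inhibition of cell growth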
Description: SANGER: Inhibition of human DOK cell growth in a cell viability assay.

[20] = test system: BL-41;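 also: growth inhibition of human BL-41 cells, read out with a cell viability assay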
Description: SANGER: Inhibition of human BL-41 cell growth in a cell viability assay.

[21] = test system: AN3-CA;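 also: growth inhibition of human AN3-CA cells measured by a cell viability assay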
Description: SANGER: Inhibition of human AN3-CA cell growth in a cell viability assay.

[22] = test system: NCI-H1703;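 also: growth inhibition of NCI-H1703 cells, read out via a cell viability assay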
Description: SANGER: Inhibition of human NCI-H1703 cell growth in a cell viability assay.

[23] = test system: NCI-H2347;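 also: growth inhibition of the cell line, read out with a cell viability assay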
Description: SANGER: Inhibition of human NCI-H2347 cell growth in a cell viability assay.

[24] = test system: NALM-6;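 also: growth inhibition of NALM-6 cells, read out with a cell viability assay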
Description: SANGER: Inhibition of human NALM-6 cell growth in a cell viability assay.

[25] = test system: Hs-578T
Description: SANGER: Inhibition of human Hs-578-T cell growth in a cell viability assay.

[26] = test system: LB647-SCLC;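 also: cell growth inhibition, read out by a viability assay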
Description: SANGER: Inhibition of human LB647-SCLC cell growth in a cell viability assay.

[27] = test system: CAL-62;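 also: growth inhibition of CAL-62 cells, read out with a cell viability assay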
Description: SANGER: Inhibition of human CAL-62 cell growth in a cell viability assay.

[28] = test system: CAKI-1;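 also: growth inhibition of CAKI-1 cells, measured by a cell viability assay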
Description: SANGER: Inhibition of human CAKI-1 cell growth in a cell viability assay.

[29] = test system: AGS;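 also: growth inhibition of AGS cells, determined with a cell viability assay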
Description: SANGER: Inhibition of human AGS cell growth in a cell viability assay.

[30] = test system: NCI-H1417;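 also: human NCI-H1417 cells, growth inhibition determined with a cell viability readout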
Description: SANGER: Inhibition of human NCI-H1417 cell growth in a cell viability assay.

[31] = test system: GDM-1;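 also: cell viability readout used to measure growth inhibition of human GDM-1 cells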
Description: SANGER: Inhibition of human GDM-1 cell growth in a cell viability assay.

[32] = test system: HT-1376
Description: SANGER: Inhibition of human HT-1376 cell growth in a cell viability assay.

[33] = test system: NCI-H2087;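 also: growth inhibition determined with a cell viability readout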
Description: SANGER: Inhibition of human NCI-H2087 cell growth in a cell viability assay.

[34] = test system: A 172;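 also: growth inhibition of A172 cells, measured with a cell viability readout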
Description: SANGER: Inhibition of human A172 cell growth in a cell viability assay.

[35] = test system: KP-4;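 also: human KP-4 cells, with growth inhibition read out through a cell viability assay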
Description: SANGER: Inhibition of human KP-4 cell growth in a cell viability assay.

[36] = test system: NCI-H460;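 also: cell viability assay scoring growth inhibition of human NCI-H460 cells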
Description: SANGER: Inhibition of human NCI-H460 cell growth in a cell viability assay.

[37] = test system: NY
Description: SANGER: Inhibition of human NY cell growth in a cell viability assay.

[38] = test system: SK-OV-3;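 also: growth inhibition of SK-OV-3 human cells, read out with a cell viability assay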
Description: SANGER: Inhibition of human SK-OV-3 cell growth in a cell viability assay.

[39] = test system: SIG-M5;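 also: cell viability assay read-out, measuring how strongly growth of cultured human SIG-M5 cells is inhibited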
Description: SANGER: Inhibition of human SIG-M5 cell growth in a cell viability assay.

[40] = test system: NCI-H64;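 also: growth inhibition of NCI-H64 cells, read out with a cell viability assay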
Description: SANGER: Inhibition of human NCI-H64 cell growth in a cell viability assay.

[41] = test system: CAL-33;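 also: growth inhibition of CAL-33 cells, read out with a cell viability assay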
Description: SANGER: Inhibition of human CAL-33 cell growth in a cell viability assay.

[42] = test system: ECC4;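 also: growth inhibition of ECC4 cells, read out with a cell viability assay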
Description: SANGER: Inhibition of human ECC4 cell growth in a cell viability assay.

[43] = test system: NCI-H1882;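 also: growth inhibition of the cell line, determined with a viability assay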
Description: SANGER: Inhibition of human NCI-H1882 cell growth in a cell viability assay.

[44] = test system: OE19;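 also: growth inhibition of OE19 cells, measured through a cell viability read-out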
Description: SANGER: Inhibition of human OE19 cell growth in a cell viability assay.

[45] = test system: NCI-H2452;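 also: growth inhibition of NCI-H2452 cells, read out with a cell viability assay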
Description: SANGER: Inhibition of human NCI-H2452 cell growth in a cell viability assay.

[46] = test system: CaR-1;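 also: growth inhibition of human CaR-1 cancer cells, read out with a cell viability assay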
Description: SANGER: Inhibition of human CaR-1 cell growth in a cell viability assay.

[47] = test system: GAMG;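 also: cell growth inhibition measured by a viability assay in the GAMG human cell line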
Description: SANGER: Inhibition of human GAMG cell growth in a cell viability assay.

[48] = test system: PC-3;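 also: cell viability assay measuring growth inhibition of PC-3 cells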
Description: SANGER: Inhibition of human PC-3 cell growth in a cell viability assay.

[49] = test system: HCC1569;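 also: growth inhibition of human HCC1569 cells, read out with a cell viability assay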
Description: SANGER: Inhibition of human HCC1569 cell growth in a cell viability assay.

[50] = test system: Panc1005;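 also: growth inhibition of human PANC-10-05 cells, measured by a cell viability assay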
Description: SANGER: Inhibition of human PANC-10-05 cell growth in a cell viability assay.

[51] = test system: 769-P
Description: SANGER: Inhibition of human 769-P cell growth in a cell viability assay.

[52] = test system: M059J;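 also: growth inhibition of M059J cells, read out with a cell viability assay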
Description: SANGER: Inhibition of human M059J cell growth in a cell viability assay.

[53] = test system: HT55;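 also: cell viability readout measuring growth inhibition of human HT55 cells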
Description: SANGER: Inhibition of human HT55 cell growth in a cell viability assay.

[54] = test system: WM-115
Description: SANGER: Inhibition of human WM-115 cell growth in a cell viability assay.

[55] = test system: DV-90;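 also: Read-out is a viability assay, with IC50 reflecting the drop in DV-90 cell growth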
Description: SANGER: Inhibition of human DV-90 cell growth in a cell viability assay.

[56] = test system: NCI-H322M;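 also: cell viability assay measuring inhibition of growth of human NCI-H322M cells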
Description: SANGER: Inhibition of human NCI-H322M cell growth in a cell viability assay.

[57] = test system: SCC-3;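 also: cell viability assay measuring inhibition of SCC-3 cell growth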
Description: SANGER: Inhibition of human SCC-3 cell growth in a cell viability assay.

[58] = test system: HuO9
Description: SANGER: Inhibition of human HuO9 cell growth in a cell viability assay.

[59] = test system: LB996-RCC
Description: SANGER: Inhibition of human LB996-RCC cell growth in a cell viability assay.

[60] = test system: SKG-IIIa
Description: SANGER: Inhibition of human SKG-IIIa cell growth in a cell viability assay.

[61] = test system: HTC-C3
Description: SANGER: Inhibition of human HTC-C3 cell growth in a cell viability assay.

Structure (SMILES): O=c1[nH]c2ccccc2n1C1CCN(Cc2ccc(-c3nc4cc5[nH]cnc5cc4nc3-c3ccccc3)cc2)CC1
- IC50 [1]: > 2.56 µM
- IC50 [2]: > 2.56 µM
- IC50 [3]: > 2.56 µM
- IC50 [4]: > 2.56 µM
- IC50 [5]: > 2.56 µM
- IC50 [6]: > 2.56 µM
- IC50 [7]: > 2.56 µM
- IC50 [8]: > 2.56 µM
- IC50 [9]: > 2.56 µM
- IC50 [10]: > 2.56 µM
- IC50 [11]: > 2.56 µM
- IC50 [12]: > 2.56 µM
- IC50 [13]: > 2.56 µM
- IC50 [14]: > 2.56 µM
- IC50 [15]: > 2.56 µM
- IC50 [16]: > 2.56 µM
- IC50 [17]: > 2.56 µM
- IC50 [18]: > 2.56 µM
- IC50 [19]: > 2.56 µM
- IC50 [20]: > 2.56 µM
- IC50 [21]: 1.66 µM
- IC50 [22]: > 2.56 µM
- IC50 [23]: > 2.56 µM
- IC50 [24]: 2.15 µM
- IC50 [25]: > 2.56 µM
- IC50 [26]: > 2.56 µM
- IC50 [27]: > 2.56 µM
- IC50 [28]: > 2.56 µM
- IC50 [29]: > 2.56 µM
- IC50 [30]: > 2.56 µM
- IC50 [31]: > 2.56 µM
- IC50 [32]: > 2.56 µM
- IC50 [33]: > 2.56 µM
- IC50 [34]: > 2.56 µM
- IC50 [35]: > 2.56 µM
- IC50 [36]: > 2.56 µM
- IC50 [37]: > 2.56 µM
- IC50 [38]: > 2.56 µM
- IC50 [39]: > 2.56 µM
- IC50 [40]: > 2.56 µM
- IC50 [41]: > 2.56 µM
- IC50 [42]: > 2.56 µM
- IC50 [43]: > 2.56 µM
- IC50 [44]: > 2.56 µM
- IC50 [45]: > 2.56 µM
- IC50 [46]: > 2.56 µM
- IC50 [47]: > 2.56 µM
- IC50 [48]: > 2.56 µM
- IC50 [49]: > 2.56 µM
- IC50 [50]: > 2.56 µM
- IC50 [51]: > 2.56 µM
- IC50 [52]: > 2.56 µM
- IC50 [53]: > 2.56 µM
- IC50 [54]: > 2.56 µM
- IC50 [55]: > 2.56 µM
- IC50 [56]: > 2.56 µM
- IC50 [57]: > 2.56 µM
- IC50 [58]: 1.55 µM
- IC50 [59]: > 2.56 µM
- IC50 [60]: > 2.56 µM
- IC50 [61]: > 2.56 µM

Structure (SMILES): Fc1cc(-c2cc[nH]/c(=N/c3ccc(-n4cnc(N5CCOCC5)n4)cc3)n2)cc(N2CCOCC2)c1
- IC50 [1]: 0.874 µM
- IC50 [2]: 0.885 µM
- IC50 [3]: 0.588 µM
- IC50 [4]: 0.598 µM
- IC50 [5]: 0.811 µM
- IC50 [6]: 0.881 µM
- IC50 [7]: 4.24 µM
- IC50 [8]: 0.522 µM
- IC50 [9]: > 5.12 µM
- IC50 [10]: 2.53 µM
- IC50 [11]: > 5.12 µM
- IC50 [12]: 1.21 µM
- IC50 [13]: 2.96 µM
- IC50 [14]: 0.566 µM
- IC50 [15]: 0.669 µM
- IC50 [16]: 1.82 µM
- IC50 [17]: 0.329 µM
- IC50 [18]: 1.05 µM
- IC50 [19]: 0.858 µM
- IC50 [20]: 0.307 µM
- IC50 [21]: 0.335 µM
- IC50 [22]: 0.591 µM
- IC50 [23]: 1.02 µM
- IC50 [24]: 0.214 µM
- IC50 [25]: > 5.12 µM
- IC50 [26]: > 5.12 µM
- IC50 [27]: 0.893 µM
- IC50 [28]: 0.334 µM
- IC50 [29]: 0.415 µM
- IC50 [30]: > 5.12 µM
- IC50 [31]: 0.204 µM
- IC50 [32]: 1.46 µM
- IC50 [33]: 0.341 µM
- IC50 [34]: 0.669 µM
- IC50 [35]: 0.577 µM
- IC50 [36]: 0.337 µM
- IC50 [37]: 0.623 µM
- IC50 [38]: 2.07 µM
- IC50 [39]: 0.124 µM
- IC50 [40]: 0.862 µM
- IC50 [41]: 0.826 µM
- IC50 [42]: 2.73 µM
- IC50 [43]: 1.08 µM
- IC50 [44]: 1.1 µM
- IC50 [45]: 1.69 µM
- IC50 [46]: 1.88 µM
- IC50 [47]: 1.34 µM
- IC50 [48]: 4.55 µM
- IC50 [49]: 0.412 µM
- IC50 [50]: 0.46 µM
- IC50 [51]: 0.535 µM
- IC50 [52]: 0.926 µM
- IC50 [53]: > 5.12 µM
- IC50 [54]: > 5.12 µM
- IC50 [55]: 0.958 µM
- IC50 [56]: > 5.12 µM
- IC50 [57]: 0.582 µM
- IC50 [58]: 0.638 µM
- IC50 [59]: 0.522 µM
- IC50 [60]: 4.89 µM
- IC50 [61]: 1.24 µM

Structure (SMILES): CC(C)=CC[C@@H](O)C1=CC(=O)c2c(O)ccc(O)c2C1=O [SHIKONIN]
- IC50 [1]: 4.19 µM
- IC50 [2]: 0.826 µM
- IC50 [3]: 0.695 µM
- IC50 [4]: 0.926 µM
- IC50 [5]: > 16 µM
- IC50 [6]: 0.161 µM
- IC50 [7]: 1.37 µM
- IC50 [8]: 0.813 µM
- IC50 [9]: 0.834 µM
- IC50 [10]: > 16 µM
- IC50 [11]: > 16 µM
- IC50 [12]: 1.79 µM
- IC50 [13]: 2.05 µM
- IC50 [14]: 0.657 µM
- IC50 [15]: 0.257 µM
- IC50 [16]: 2.02 µM
- IC50 [17]: 0.138 µM
- IC50 [18]: 0.891 µM
- IC50 [19]: 5.19 µM
- IC50 [20]: 0.483 µM
- IC50 [21]: 0.0796 µM
- IC50 [22]: 2.3 µM
- IC50 [23]: 0.968 µM
- IC50 [24]: < 0.0625 µM
- IC50 [25]: 6.22 µM
- IC50 [26]: 0.233 µM
- IC50 [27]: 1.28 µM
- IC50 [28]: 0.894 µM
- IC50 [29]: 0.613 µM
- IC50 [30]: 0.816 µM
- IC50 [31]: 2.68 µM
- IC50 [32]: 0.915 µM
- IC50 [33]: 0.441 µM
- IC50 [34]: 0.47 µM
- IC50 [35]: 0.501 µM
- IC50 [36]: 1.28 µM
- IC50 [37]: 1.05 µM
- IC50 [38]: 1.56 µM
- IC50 [39]: 0.17 µM
- IC50 [40]: 0.547 µM
- IC50 [41]: 2 µM
- IC50 [42]: 1.2 µM
- IC50 [43]: 0.576 µM
- IC50 [44]: 0.807 µM
- IC50 [45]: > 16 µM
- IC50 [46]: 1.31 µM
- IC50 [47]: 1.71 µM
- IC50 [48]: 0.859 µM
- IC50 [49]: 0.81 µM
- IC50 [50]: 0.416 µM
- IC50 [51]: 0.689 µM
- IC50 [52]: 0.134 µM
- IC50 [53]: 1.69 µM
- IC50 [54]: 10.6 µM
- IC50 [55]: > 16 µM
- IC50 [56]: > 16 µM
- IC50 [57]: 1 µM
- IC50 [58]: 1.66 µM
- IC50 [59]: > 16 µM
- IC50 [60]: 4.39 µM
- IC50 [61]: 0.542 µM

Structure (SMILES): C/C=C(/C)C(=O)O[C@H]1C(C)=C2[C@H]([C@@H]1OC(=O)CCCCCCC)[C@@](C)(OC(C)=O)C[C@H](OC(=O)CCC)[C@@]1(O)[C@H]2OC(=O)[C@@]1(C)O [THAPSIGARGIN]
- IC50 [1]: 0.00137 µM
- IC50 [2]: 0.335 µM
- IC50 [3]: 0.00324 µM
- IC50 [4]: 0.00451 µM
- IC50 [5]: 0.0128 µM
- IC50 [6]: 0.00603 µM
- IC50 [7]: > 0.512 µM
- IC50 [8]: 0.00418 µM
- IC50 [9]: 0.0181 µM
- IC50 [10]: 0.00419 µM
- IC50 [11]: 0.0217 µM
- IC50 [12]: 0.0485 µM
- IC50 [13]: 0.33 µM
- IC50 [14]: 0.0303 µM
- IC50 [15]: 0.00279 µM
- IC50 [16]: 0.0101 µM
- IC50 [17]: 0.000777 µM
- IC50 [18]: 0.0114 µM
- IC50 [19]: > 0.512 µM
- IC50 [20]: < 0.002 µM
- IC50 [21]: < 0.002 µM
- IC50 [22]: 0.0101 µM
- IC50 [23]: 0.0102 µM
- IC50 [24]: < 0.002 µM
- IC50 [25]: > 0.512 µM
- IC50 [26]: 0.00486 µM
- IC50 [27]: 0.0716 µM
- IC50 [28]: 0.0834 µM
- IC50 [29]: 0.00878 µM
- IC50 [30]: > 0.512 µM
- IC50 [31]: 0.23 µM
- IC50 [32]: 0.00275 µM
- IC50 [33]: 0.000546 µM
- IC50 [34]: < 0.002 µM
- IC50 [35]: 0.00264 µM
- IC50 [36]: 0.00837 µM
- IC50 [37]: < 0.002 µM
- IC50 [38]: 0.00264 µM
- IC50 [39]: < 0.002 µM
- IC50 [40]: 0.00645 µM
- IC50 [41]: 0.0307 µM
- IC50 [42]: > 0.512 µM
- IC50 [43]: > 0.512 µM
- IC50 [44]: 0.0365 µM
- IC50 [45]: > 0.512 µM
- IC50 [46]: 0.00862 µM
- IC50 [47]: 0.00886 µM
- IC50 [48]: 0.008 µM
- IC50 [49]: 0.0179 µM
- IC50 [50]: 0.0261 µM
- IC50 [51]: 0.0323 µM
- IC50 [52]: 0.0108 µM
- IC50 [53]: > 0.512 µM
- IC50 [54]: 0.0219 µM
- IC50 [55]: 0.0288 µM
- IC50 [56]: > 0.512 µM
- IC50 [57]: 0.0416 µM
- IC50 [59]: 0.0313 µM
- IC50 [60]: > 0.512 µM
- IC50 [61]: 0.0217 µM
